Measured values from ChEMBL document CHEMBL3091419, “Cytidine derivatives as IspF inhibitors of Burkolderia pseudomallei” (Bioorg Med Chem Lett, 2013).
Activity calls are given as the source filed them. The rule behind the calls is not given here.

Key:
[1] = test system: Plasmodium falciparum; test: Antimicrobial activity against Plasmodium falciparum W2 at 40 uM; type: functional, organism-based
[2] = test system: Plasmodium falciparum; test: Antimicrobial activity against Plasmodium falciparum C235 at 40 uM; type: functional, organism-based
[3] = test system: Burkholderia thailandensis; test: Antimicrobial activity against Burkholderia thailandensis at 1 mM; type: functional
[4] = test system: Plasmodium falciparum; test: Antimicrobial activity against Plasmodium falciparum D6 at 40 uM; type: functional, organism-based
[5] = molecular target: T1, 2-C-methyl-D-erythritol 2,4-cyclodiphosphate synthase (Burkholderia pseudomallei (strain K96243), UniProt Q63T71); test: Binding affinity to Burkolderia pseudomallei IspF by surface plasmon resonance method
T1 sequence (Q63T71 whole entry): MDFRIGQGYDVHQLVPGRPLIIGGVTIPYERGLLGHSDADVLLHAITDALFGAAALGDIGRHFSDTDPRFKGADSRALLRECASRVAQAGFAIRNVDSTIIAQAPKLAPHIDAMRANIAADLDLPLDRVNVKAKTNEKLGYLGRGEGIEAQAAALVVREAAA

For Nc1ccn([C@@H]2O[C@H](CNC(=O)c3cscn3)[C@@H](O)[C@H]2O)c(=O)n1, the Activity [1] was “inactive”, the Activity [2] was “inactive” and the Activity [3] was “inactive”. For the same molecule, the Activity [4] was “inactive” and the Kd [5] was 200 µM.

In the case of Nc1ccn([C@@H]2O[C@H](CNC(=O)c3cn4ccsc4n3)[C@@H](O)[C@H]2O)c(=O)n1, the Activity [1] is reported as “inactive”, the Activity [2] is reported as “inactive” and the Activity [3] is reported as “inactive”. The Activity [4] was “inactive” and the Kd [5] was 70 µM.

Nc1ccn([C@@H]2O[C@H](CNC(=O)Cc3cn4ccsc4n3)[C@@H](O)[C@H]2O)c(=O)n1 was tested, and the Activity [1] was “inactive”, the Activity [2] was “inactive” and the Activity [3] was “inactive”. The Activity [4] was “inactive” and the Kd [5] was 148 µM.

In the case of Nc1ccn([C@@H]2O[C@H](CNC(=O)c3ccncc3)[C@@H](O)[C@H]2O)c(=O)n1, the Activity [1] is reported as “inactive”, the Activity [2] is reported as “inactive” and the Activity [3] is reported as “inactive”. For the same molecule, the Activity [4] was “inactive” and the Kd [5] was 180 µM.

With Oc1ccc(-n2ccnc2)cc1 the Kd [5] was greater than 500 µM.

With Nc1ccn([C@@H]2O[C@H](CNC(=O)c3ccnc4nc[nH]c34)[C@@H](O)[C@H]2O)c(=O)n1 the Activity [1] was “inactive”, the Activity [2] was “inactive” and the Activity [3] was “inactive”. The Activity [4] was “inactive” and the Kd [5] was 90 µM.

Work on OCc1cn2ccsc2n1 yielded a Kd [5] of 135 µM.
